# What was measured:
# [1] = target: T1, muscarinic M2 receptors (Rattus norvegicus, UniProt P10980); assay: Inhibition of binding to muscarinic M2 receptors ([3H]-N-methylscopolamine, heart membrane); conditions: 0.2 nM [3H]-N-methylscopolamine
# T1 construct: a membrane specimen from the heart was used as the membrane specimen; from tissue; host or cells: rat heart membranes (SD rat)
# T1 sequence (P10980 1-466): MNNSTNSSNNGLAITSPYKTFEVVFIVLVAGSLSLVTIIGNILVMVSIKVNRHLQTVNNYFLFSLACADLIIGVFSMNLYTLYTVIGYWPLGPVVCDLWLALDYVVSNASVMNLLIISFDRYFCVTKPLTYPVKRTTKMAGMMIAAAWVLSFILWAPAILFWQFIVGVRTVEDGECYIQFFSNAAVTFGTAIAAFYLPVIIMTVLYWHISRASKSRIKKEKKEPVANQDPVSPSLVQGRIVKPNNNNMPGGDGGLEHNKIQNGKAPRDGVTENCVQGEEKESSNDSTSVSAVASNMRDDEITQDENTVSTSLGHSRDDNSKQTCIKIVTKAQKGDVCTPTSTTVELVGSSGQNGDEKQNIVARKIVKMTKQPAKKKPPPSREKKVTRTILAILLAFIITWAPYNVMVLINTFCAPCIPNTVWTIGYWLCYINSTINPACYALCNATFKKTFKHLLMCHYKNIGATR
# Description: The compounds of formula [I] in accordance with the present invention have a potent and selective inhibitory effect on binding to muscarinic receptors, as well as a potent and selective antagonistic effect on muscarinic receptors both in vitro and in vivo. […] In these tests, their inhibitory and antagonistic effects were expressed in terms of the dissociation constant (Ki) of each test compound which was calculated from its concentration (IC50 ) causing a 50% inhibition of the binding of a labeled ligand to muscarinic receptors. As the labeled ligand, [^3 H]-telenzepine was used for the muscarinic M1 receptors and [^3 H]-N-methylscopolamine for the muscarinic M2 and M3 receptors.
# A male SD strain rat (purchased from Nippon Charles River Co., Ltd.), weighing about 250-350 g, was sacrificed, and the cerebral cortex, heart and lacrimal glands were excised. Using a Polytron (setting 5), each organ was homogenized in 5 volumes of an ice-cold buffer solution (pH 7.4) containing 50 mM tris-HCl, 5 mM magnesium chloride, 1 mM trisodium ethylenediaminetetraacetate and 20% sucrose. The resulting homogenate was centrifuged at 3,000×g at 4° C. for 15 minutes, and the supernatant was filtered through gauze and ultracentrifuged at 100,000×g at 4° C. for 45 minutes. The resulting precipitate was suspended in an ice-cold buffer solution (pH 7.4) containing 50 mM tris-HCl and 5 mM magnesium chloride (hereinafter referred briefly to as "tris buffer") and ultracentrifuged at 100,000×g at 4° C. for 45 minutes. The resulting precipitate was suspended in tris buffer so as to give a concentration of 50 mg/ml and stored at -80° C. till use. The membrane specimens so prepared were thawed prior to use and submitted to tests for the inhibition of binding to muscarinic receptors.
# 3) Tests for the inhibition of binding to the muscarinic M2 receptors
# The nonspecific binding of [^3 H]-N-methylscopolamine to receptors was determined by the addition of 1 mM N-methylscopolamine.
# [2] = target: T2, bladder M3 receptors (Rattus norvegicus, UniProt P08483); assay: Antagonism against bladder M3 receptors in an isolated rat bladder; conditions: in vitro, agonist carbachol
# T2 construct: the bladder was excised; from tissue; host or cells: isolated rat bladder
# Description: 5) Tests for antagonism against the bladder M3 receptors in an isolated rat bladder
# These tests were performed according to an ordinary method. A male SD strain rat (weighing 200-400 g) was killed by exsanguination, and the bladder was excised. This bladder axially cut into eight parts to make bladder preparations. A preparation was suspended in a Magnus tube filled with 5 ml of Krebs-Henseleit nutrient solution (gassed with 95% O2 -5% CO2 and kept at 32° C.) with an initial tension of 0.5 g. The tension of the preparation was recorded isometrically. After being equilibrated for an hour, the preparation was made to contract twice by treatment with 10^-4 M carbachol, and the second contraction induced by carbachol was used as the reference contraction. After the preparation was washed with fresh solution to make a return to the base line, a test compound was administered thereto (or no treatment was made). Ten minutes later, carbachol (10^-8 to 10^-3 M) was cumulatively administered from the lower-most concentration in three-fold increasing doses to obtain a dose-response curve. The dose-response curve was constructed by expressing responses as percentages based on the reference contraction of the preparation. The antagonistic potency (KB value) of the test compound was determined from the degree of shift of the dose-response curve obtained by treatment with the test compound.
# [3] = target: T3, M2 receptors (right atrium) (Rattus norvegicus, UniProt P10980); assay: Antagonism against M2 receptors in an isolated rat right atrium; conditions: in vitro, agonist carbachol
# T3 construct: the right atrium was excised; from tissue; host or cells: isolated rat right atrium
# T3 sequence (P10980 1-466): T1 sequence (P10980 1-466)
# Description: 2) Tests for antagonism against the M2 receptors in an isolated rat right atrium
# These tests were performed according to an ordinary method. A male SD strain rat (weighing 300-500 g) was killed by exsanguination, and the right atrium was excised. This preparation was isometrically suspended in a Magnus tube filled with 20 ml of Krebs-Henseleit nutrient solution (gassed with 95% O2 -5% CO2 and kept at 32° C.) with an initial tension of 0.5 g. The heart rate was recorded with a heart rate counter. After the preparation was equilibrated for 30 minutes, carbachol (10^-9 to 10^-6 M) was cumulatively administered from the lowermost concentration in three-fold increasing doses. Thus, a decrease in heart rate was measured to obtain a dose-response curve for the control experiment. After the preparation was washed with fresh solution to restore the heart rate, a test compound was administered thereto. Ten minutes later, carbachol was cumulatively administered again. Responses to carbachol were expressed as percentages based on the heart rate before administration of carbachol. The antagonistic potency (KB value) of the test compound (i.e., a compound in accordance with the present invention) was determined from the degree of shift of the dose-response curve obtained by treatment with the test compound.
# T2 sequence (P08483 whole entry): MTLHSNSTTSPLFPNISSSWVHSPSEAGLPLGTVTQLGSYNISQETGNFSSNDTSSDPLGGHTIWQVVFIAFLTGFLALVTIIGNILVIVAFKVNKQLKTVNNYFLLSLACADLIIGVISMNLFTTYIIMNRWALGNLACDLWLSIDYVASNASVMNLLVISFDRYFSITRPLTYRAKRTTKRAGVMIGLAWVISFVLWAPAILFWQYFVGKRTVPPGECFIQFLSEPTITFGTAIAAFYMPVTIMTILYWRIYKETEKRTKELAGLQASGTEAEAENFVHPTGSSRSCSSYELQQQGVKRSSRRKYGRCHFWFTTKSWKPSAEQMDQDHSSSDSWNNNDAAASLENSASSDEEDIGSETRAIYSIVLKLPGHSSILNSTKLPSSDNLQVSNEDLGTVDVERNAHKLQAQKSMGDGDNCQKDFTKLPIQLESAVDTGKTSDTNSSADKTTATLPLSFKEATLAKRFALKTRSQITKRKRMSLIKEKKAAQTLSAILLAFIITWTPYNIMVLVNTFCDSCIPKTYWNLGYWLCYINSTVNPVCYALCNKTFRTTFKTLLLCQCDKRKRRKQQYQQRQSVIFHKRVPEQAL
smiles,measurement,setting,value
"CC(C)=CCCN1CCC(NC(=O)C(O)(c2ccccc2)C2CCC2)CC1 (stereo not drawn) [Example 1, N-[1-(4-methyl-3-pentenyl)-piperidin-4-yl]-2-cyclobutyl-2-hydroxy-2-phenylacetamide]",Ki,[1],860 nM
same,Kb,[2],31 nM
same,Kb,[3],1500 nM

# — patent publication US5750540A, “1,4-di-substituted piperidine derivatives” (Banyu Pharmaceutical Co., Ltd., priority 1995, dated 1998)
